Structures can show the parent of a compound that is named as a salt.
Tests used:
Format in all cases: cell-based
S. mariescens FPOR 8733 = test: MIC, agar dilution
S. aureus IVES 1 983 = test: MIC, agar dilution; conditions: S. aureus IVES 1 983
E. coli J3272 Tet C = test: microbe, parasite or virus in culture; conditions: E. coli J3272 Tet C
E. coli UBMS 88-1 Tet B = test: microbe, parasite or virus in culture; conditions: E. coli UBMS 88-1 Tet B; 18 hours at 35° C.
[1] = system: S. aureus UBMS 88-7 Tet K; test: microbe, parasite or virus in culture; conditions: S. aureus UBMS 88-7 Tet K
E. coli UBMS 89-1 Tet M = test: microbe, parasite or virus in culture; conditions: E. coli UBMS 89-1 Tet M
E. coli ATCC 25922 = test: MIC, agar dilution; conditions: E. coli ATCC 25922
E. coli UBMS 90-4 Tet M = test: microbe, parasite or virus in culture; conditions: E. coli UBMS 90-4 Tet M
S. aureus SMITH (MP) = test: MIC, agar dilution; conditions: S. aureus SMITH (MP)
S. aureus UBMS 88-4 = test: MIC, agar dilution; conditions: S. aureus UBMS 88-4
Enterococcus 12201 = test: MIC, agar dilution; conditions: Enterococcus 12201
E. coli BAJ9003 IMP MUT = test: microbe, parasite or virus in culture; conditions: E. coli BAJ9003 IMP MUT
S. aureus IVES 2943 = test: MIC, agar dilution; conditions: S. aureus IVES 2943
[2] = system: S. hemolyticus AVHAH 88-3; test: MIC, agar dilution; conditions: S. hemolyticus AVHAH 88-3
[3] = system: S. aureus UBMS 90-1 Tet M; test: microbe, parasite or virus in culture; conditions: S. aureus UBMS 90-1 Tet M
E. coli J2175 = test: MIC, agar dilution; conditions: E. coli J2175
S. aureus ATCC 29213 = test: MIC, agar dilution; conditions: S. aureus ATCC 29213
[4] = system: E. coli MC 4100 Tet sens.; test: MIC, agar dilution
[5] = system: Ps. acruginosa ATCC 27853; test: MIC, agar dilution; conditions: Ps. acruginosa ATCC 27853
E. coli PRP1 Tet A = test: microbe, parasite or virus in culture; conditions: E. coli PRP1 Tet A
S. aureus ROSE (MP) = test: MIC, agar dilution; conditions: S. aureus ROSE (MP)
[6] = system: E. coli UBMS 89-2 Tet sens.; test: MIC, agar dilution; conditions: E. coli UBMS 89-2 Tet sens.
[7] = system: S. aureus UBMS 90-2 Tet M; test: microbe, parasite or virus in culture; conditions: S. aureus UBMS 90-2 Tet M
S. aureus UBMS 90-3 = test: MIC, agar dilution; conditions: S. aureus UBMS 90-3
E. faecalis ATCC 29212 = test: MIC, agar dilution; conditions: E. faecalis ATCC 29212
E. coli #311 (MP) = test: MIC, agar dilution; conditions: E. coli #311 (MP)
[8] = system: S. aureus UBMS 88-5 Tet M; test: microbe, parasite or virus in culture; conditions: S. aureus UBMS 88-5 Tet M
E. coli UBMS 90-5 = test: MIC, agar dilution
E. coli J3272 Tet D = test: microbe, parasite or virus in culture; conditions: E. coli J3272 Tet D
S. aureus NEMC 8769 = test: MIC, agar dilution; conditions: S. aureus NEMC 8769
[9] = system: tetracycline sensitive and resistant Gram-positive and Gram-negative bacteria; test: In vitro antibacterial activity, summary in words of Table I

Molecule | MIC (S. mariescens FPOR 8733) [µg/mL] | MIC (S. aureus IVES 1 983) [µg/mL] | MIC (E. coli J3272 Tet C) [µg/mL] | MIC (E. coli UBMS 88-1 Tet B) [µg/mL] | MIC [1] [µg/mL] | MIC (E. coli UBMS 89-1 Tet M) [µg/mL] | MIC (E. coli ATCC 25922) [µg/mL] | MIC (E. coli UBMS 90-4 Tet M) [µg/mL] | MIC (S. aureus UBMS 88-4) [µg/mL] | MIC (E. coli BAJ9003 IMP MUT) [µg/mL] | MIC (S. aureus IVES 2943) [µg/mL] | MIC [3] [µg/mL] | MIC (S. aureus ATCC 29213) [µg/mL] | MIC [4] [µg/mL] | MIC [5] [µg/mL] | MIC (E. coli PRP1 Tet A) [µg/mL] | MIC [6] [µg/mL] | MIC [7] [µg/mL] | MIC [8] [µg/mL] | MIC (E. coli J3272 Tet D) [µg/mL] | also measured
717S-(7alpha,10aalpha)]-N-[9-(Aminocarbonyl)4,7-bis(dimethylamino)-5,5a,6,6a,7,10,10a,12-octahydro-1,8,10a,11-tetrahydroxy-10,12-dioxo-2-naphthacenyl]-4-methyl-l-piperazineacetamide dihydrochloride | > 32 | > 32 | 8 | 8 | 16 | 8 | 8 | 8 | 2 | 0.5 | > 32 | 8 | 2 | 1 | > 32 | 16 | 8 | 2 | 4 | 4 | MIC (S. aureus SMITH (MP)): 0.5 µg/mL; MIC (Enterococcus 12201): 2 µg/mL; MIC [2]: 16 µg/mL; MIC (E. coli J2175): 8 µg/mL; MIC (S. aureus ROSE (MP)): > 32 µg/mL; MIC (S. aureus UBMS 90-3): 2 µg/mL; MIC (E. faecalis ATCC 29212): 1 µg/mL; MIC (E. coli #311 (MP)): 8 µg/mL; MIC (E. coli UBMS 90-5): 8 µg/mL
CCCCCCCNCC(=O)Nc1cc(N(C)C)c2c(c1O)C(=O)C1=C(O)[C@]3(O)C(=O)C(C(N)=O)=C(O)[C@@H](N(C)C)C3CC1C2 (stereo partly drawn) [J, [4S-(4alpha,12aalpha)]-4,7-Bis(dimethylamino)-9-[[(heptylamino)acetyl]amino]-l,4,4a,5,5a,6,11,12a-octahydro-3,10,12,12a-tetrahydroxy-1,11-dioxo-2-naphthacenecarboxamide dihydrochloride] | 16 | 1 | 2 | 2 | 1 | 0.5 | 2 | 2 | 0.5 | 0.25 | 0.5 | 1 | 0.5 | 1 | > 32 | 2 | 2 | 0.5 | 0.5 | 2 | MIC (S. aureus NEMC 8769): no; MIC (Enterococcus 12201): 0.5 µg/mL; MIC [2]: 2 µg/mL; MIC (E. coli J2175): 2 µg/mL; MIC (S. aureus ROSE (MP)): 2 µg/mL; MIC (E. coli #311 (MP)): 2 µg/mL; MIC (E. coli UBMS 90-5): 2 µg/mL
CN(C)c1cc(NC(=O)CNCC2CC2)c(O)c2c1CC1CC3C(N(C)C)C(O)=C(C(N)=O)C(=O)C3(O)C(O)=C1C2=O.Cl.Cl (stereo not shown) [K] | 8 | 8 |  | 0.5 | 4 | 0.5 |  |  | 0.5 | 0.12 | 8 | 1 | 1 | 0.12 | 16 | 4 | 0.5 | 0.5 | 1 | 0.25 | MIC (S. aureus NEMC 8769): 1 µg/mL; MIC (S. aureus SMITH (MP)): 0.5 µg/mL; activity against E. coli tetA, E. coli tetC and E. coli tetD [9]: good activity; in vitro activity against tetracycline resistant strains containing tetM and tetB resistance determinants ([9]; S. aureus UBMS 88-5, 90-1, 90-2, E. coli UBMS 89-1, 90-4, 88-1, TN10C tetB): excellent; activity against recently isolated bacteria from clinical sources compared with minocycline ([9]; clinical isolates): superior to that of minocycline; activity against susceptible strains compared with minocycline ([9]; susceptible strains): equallyas effective as minocycline; MIC (S. aureus UBMS 90-3): 0.5 µg/mL
[4S-(4alpha,12aalpha)]-4,7-bis(dimethylamino)-1,4,4a,5,5a,6,11,12a-octahydro-3,10, 12,12a-tetrahydroxy-1,11-dioxo-9-[[[(2pyridinylmethyl)amino]acetyl]amino-2-naphthacenecarboxamide dihydrochloride | > 32 | > 32 | 16 | 16 | 32 | 8 | 8 | 8 | 8 | 1 | > 32 | 8 | 8 | 2 | > 32 | 32 | 16 | 8 | 8 | 8 | MIC (S. aureus NEMC 8769): 8 µg/mL; MIC (S. aureus SMITH (MP)): 4 µg/mL; MIC (Enterococcus 12201): 4 µg/mL; MIC [2]: 16 µg/mL; MIC (E. coli J2175): 16 µg/mL; MIC (S. aureus UBMS 90-3): 4 µg/mL; MIC (E. faecalis ATCC 29212): 2 µg/mL; MIC (E. coli #311 (MP)): 8 µg/mL; MIC (E. coli UBMS 90-5): 16 µg/mL

Reference: patent US5328902A, “7-(substituted)-9-[(substituted glycyl)amido]-6-demethyl-6-deoxytetracyclines” (American Cyanamid Co., priority 1992, dated 1994)
